In brackets after ≈: the same amount, converted by molar mass. Like-named read-outs stand apart in the source and are kept apart here. Marks after values point to notes of the source that are not given here.
Legend:
[1] = target: human TLR7 (Homo sapiens (Human), UniProt Q9NYK1); assay: HEK-Blue-hTLR7 cells assay (SEAP reporter); type: cell-based; conditions: 20 hrs
Description: (§1) A stable HEK-Blue-hTLR7 cell line was purchased from InvivoGen (Cat.#: hkb-htlr7, San Diego, Calif., USA). These cells were designed for studying the stimulation of human TLR7 by monitoring the activation of NF-κB. […] Therefore the reporter expression was regulated by the NF-κB promoter upon stimulation of human TLR7 for 20 hrs. The cell culture supernatant SEAP reporter activity was determined using QUANTI-Blue™ kit (Cat.#: rep-qb1, Invivogen, San Diego, Ca, USA) at a wavelength of 640 nm, a detection medium that turns purple or blue in the presence of alkaline phosphatase.
(§2) HEK-Blue-hTLR7 cells were incubated at a density of 250,000˜450,000 cells/mL in a volume of 180 μL in a 96-well plate in Dulbecco's Modified Eagle's medium (DMEM) containing 4.5 g/L glucose, 50 U/mL penicillin, […], […], 2 mM L-glutamine, 10% (V/V) heat-inactivated fetal bovine serum for 24 hrs. Then the HEK-Blue-hTLR-7 cells were incubated with addition of 20 μL test compound in a serial dilution in the presence of final DMSO at 1% and perform incubation under 37° C. in a CO2 incubator for 20 hrs. Then 20 μL of the supernatant from each well was incubated with 180 μL Quanti-blue substrate solution at 37° C. for 2 hrs and the absorbance was read at 620˜655 nm using a spectrophotometer. The signalling pathway that TLR7 activation leads to downstream NF-κB activation has been widely accepted, and therefore similar reporter assay was also widely used for evaluating TLR7 agonist (Tsuneyasu Kaisho and Takashi Tanaka, Trends in Immunology, Volume 29, Issue 7, July 2008, […]; Hiroaki Hemmi et al, Nature Immunology 3, 196-200 (2002)).

[2] = Metabolic stability in human liver microsomes; conditions: 1 μM test compound, 0.5 mg/mL microsomal protein; 6.15 mL/min/kg is the limitation of assay sensitivity
Description: The human microsomal stability assay is used for early assessment of metabolic stability of a test compound in human liver microsomes.
Human liver microsomes (Cat. NO.: 452117, Corning, USA; Cat. NO.: H2610, Xenotech, USA) were preincubated with test compound for 10 minutes at 37° C. in 100 mM potassium phosphate buffer, pH 7.4. The reactions were initiated by adding NADPH regenerating system. The final incubation mixtures contained 1 μM test compound, 0.5 mg/mL liver microsomal protein, 1 mM MgCL2, 1 mM NADP, 1 unit/mL isocitric dehydrogenase and 6 mM isocitric acid in 100 mM potassium phosphate buffer, pH 7.4. After incubation times of 0, 3, 6, 9, 15 and 30 minutes at 37° C., 300 μL of cold ACN (including internal standard) was added to 100 μL incubation mixture to terminate the reaction. Following precipitation and centrifugation, the amount of compound remaining in the samples were determined by LC-MS/MS. Controls of no NADPH regenerating system at zero and 30 minutes were also prepared and analyzed.

[3] = LYSA solubility; type: physicochemical; conditions: for solubility thermodynamic: 0.05 M phosphate buffer, pH 6.5, aqueous buffer, thermodynamic from solid; for LYSA: 0.05 M phosphate buffer (pH 6.5)
Description: LYSA solubility assay is used to determine the aqueous solubility of a compound. Samples were prepared in duplicate from 10 mM DMSO stock solution. […] After one night, the solutions were filtered using a microtiter filter plate. Then the filtrate and its 1/10 dilution were analyzed by HPLC-UV.

[4] = target: human TLR8 (Homo sapiens (Human), UniProt Q9NR97); assay: HEK-Blue-hTLR8 cells assay and selectivity index; type: cell-based; conditions: for Selective index: EC50(TLR8) value/EC50(TLR7) value
Description: as §1, with “HEK-Blue-hTLR8” for “HEK-Blue-hTLR7”, “HEK-Blue-htlr8,” for “hkb-htlr7,”, “TLR8” for “TLR7”
as §2, with “HEK-Blue-hTLR8 cells” for “HEK-Blue-hTLR7 cells”, “the HEK-Blue-hTLR8” for “the HEK-Blue-hTLR-7”, “2 hours” for “2 hrs”, “that TLR8” for “that TLR7”, “evaluating TLR8” for “evaluating TLR7”
The ratio of TLR8 agonism activity compared to TLR7 agonism activity was defined as the selectivity index (EC50 (TLR8) value/EC50(TLR7) value) and calculated accordingly.

[5] = read-out: HEK-Blue-hTLR7 (EC50 (μM))

human TLR7, sequence (Q9NYK1 27-1049): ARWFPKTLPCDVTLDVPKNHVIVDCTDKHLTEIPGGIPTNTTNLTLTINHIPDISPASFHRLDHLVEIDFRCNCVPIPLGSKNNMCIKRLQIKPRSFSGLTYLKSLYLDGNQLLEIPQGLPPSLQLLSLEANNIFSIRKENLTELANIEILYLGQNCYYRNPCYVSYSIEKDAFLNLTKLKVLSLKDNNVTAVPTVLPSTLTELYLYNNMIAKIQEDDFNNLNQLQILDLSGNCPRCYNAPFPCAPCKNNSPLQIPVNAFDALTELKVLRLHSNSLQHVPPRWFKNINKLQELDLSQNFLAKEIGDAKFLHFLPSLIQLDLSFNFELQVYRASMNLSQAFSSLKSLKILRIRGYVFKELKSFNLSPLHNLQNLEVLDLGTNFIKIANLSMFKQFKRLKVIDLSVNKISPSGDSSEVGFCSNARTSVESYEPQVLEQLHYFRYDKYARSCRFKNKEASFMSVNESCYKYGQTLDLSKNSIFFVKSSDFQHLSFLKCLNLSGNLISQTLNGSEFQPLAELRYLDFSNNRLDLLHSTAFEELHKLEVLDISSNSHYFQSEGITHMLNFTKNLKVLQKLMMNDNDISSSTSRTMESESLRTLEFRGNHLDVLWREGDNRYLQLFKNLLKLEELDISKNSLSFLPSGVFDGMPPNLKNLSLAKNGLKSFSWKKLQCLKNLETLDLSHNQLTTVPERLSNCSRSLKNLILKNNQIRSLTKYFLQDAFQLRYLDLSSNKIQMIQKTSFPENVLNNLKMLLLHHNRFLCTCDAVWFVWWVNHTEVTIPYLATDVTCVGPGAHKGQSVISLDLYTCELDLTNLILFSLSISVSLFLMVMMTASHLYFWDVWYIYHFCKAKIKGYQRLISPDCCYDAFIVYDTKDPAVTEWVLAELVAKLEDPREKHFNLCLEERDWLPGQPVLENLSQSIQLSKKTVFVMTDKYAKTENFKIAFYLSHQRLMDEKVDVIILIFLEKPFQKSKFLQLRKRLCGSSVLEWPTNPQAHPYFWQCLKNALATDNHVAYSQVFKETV
human TLR8, sequence (Q9NR97 27-1041): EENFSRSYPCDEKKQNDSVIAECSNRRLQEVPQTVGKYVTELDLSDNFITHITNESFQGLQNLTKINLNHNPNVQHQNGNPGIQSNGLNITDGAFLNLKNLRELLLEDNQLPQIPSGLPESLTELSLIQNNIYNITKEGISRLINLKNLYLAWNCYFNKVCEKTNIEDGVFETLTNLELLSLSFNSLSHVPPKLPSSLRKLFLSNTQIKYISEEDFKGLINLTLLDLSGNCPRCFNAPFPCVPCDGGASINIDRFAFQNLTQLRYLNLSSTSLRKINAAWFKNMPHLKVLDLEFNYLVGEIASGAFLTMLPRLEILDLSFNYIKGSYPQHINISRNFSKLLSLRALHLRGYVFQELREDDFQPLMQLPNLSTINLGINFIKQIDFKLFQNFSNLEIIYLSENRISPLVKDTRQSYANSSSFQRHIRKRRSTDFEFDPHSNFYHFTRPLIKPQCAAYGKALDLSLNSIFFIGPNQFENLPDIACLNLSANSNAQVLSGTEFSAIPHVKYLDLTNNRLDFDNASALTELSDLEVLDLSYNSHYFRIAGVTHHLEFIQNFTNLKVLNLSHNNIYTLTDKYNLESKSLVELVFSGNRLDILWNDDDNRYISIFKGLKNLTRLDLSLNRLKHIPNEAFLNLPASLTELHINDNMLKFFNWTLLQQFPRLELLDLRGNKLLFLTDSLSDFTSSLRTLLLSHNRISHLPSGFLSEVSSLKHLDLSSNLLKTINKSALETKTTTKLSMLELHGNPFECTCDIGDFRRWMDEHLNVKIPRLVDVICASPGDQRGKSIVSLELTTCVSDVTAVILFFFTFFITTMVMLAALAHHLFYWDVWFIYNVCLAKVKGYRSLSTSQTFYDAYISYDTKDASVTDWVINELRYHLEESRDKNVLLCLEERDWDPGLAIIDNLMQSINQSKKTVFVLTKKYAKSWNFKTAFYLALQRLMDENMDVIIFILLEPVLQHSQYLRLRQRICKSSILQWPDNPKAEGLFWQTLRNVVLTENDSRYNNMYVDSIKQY

| Human Liver Microsome Clearance [2] | solubility thermodynamic [3] | Compound | EC50 [1, 5] | also measured |
| --- | --- | --- | --- | --- |
| <6.15 mL/min/kg | 40 µg/mL (≈ 111 µM) | CCCCS(=N)(=O)c1nc(N)c2[nH]c(=O)n(Cc3ccccc3)c2n1 (stereo not shown) [Example 5, 6-Amino-9-benzyl-2-(butylsulfonimidoyl)-7H-purin-8-one] | 0.32 µM |  |
| <6.15 mL/min/kg | 357 µg/mL (≈ 985 µM) | CCCS(=N)(=O)c1nc(N)c2[nH]c(=O)n(Cc3cnc(C)nc3)c2n1 (stereo not shown) [Example 44, 6-Amino-9-[(2-methylpyrimidin-5-yl)methyl]-2-(propylsulfonimidoyl)-7H-purin-8-one] | 0.136 µM |  |
| <6.15 mL/min/kg | 90 µg/mL (≈ 257 µM) | CCS(=N)(=O)c1nc(N)c2[nH]c(=O)n(Cc3ccc(F)cc3)c2n1 (single isomer, unassigned) [Example 72-A, 6-Amino-2-(ethylsulfonimidoyl)-9-[(4-fluorophenyl)methyl]-7H-purin-8-one] |  |  |
| <6.15 mL/min/kg | 29 µg/mL (≈ 87.2 µM) | CCS(=N)(=O)c1nc(N)c2[nH]c(=O)n(Cc3ccccc3)c2n1 (stereo not shown) [Example 2, 6-Amino-9-benzyl-2-(ethylsulfonimidoyl)-7H-purin-8-one] | 0.2 µM |  |
|  |  | CS(=N)(=O)c1nc(N)c2[nH]c(=O)n(Cc3cccnc3)c2n1 (stereo not shown) [Example 16, 6-Amino-2-(methylsulfonimidoyl)-9-(3-pyridylmethyl)-7H-purin-8-one] | 0.22 µM | EC50 [4]: > 1000 µM; Selective index [4]: >4546 |
| <6.15 mL/min/kg |  | CCS(=N)(=O)c1nc(N)c2[nH]c(=O)n(Cc3ccc(F)cc3)c2n1 (single isomer, unassigned) [Example 72-B, 6-Amino-2-(ethylsulfonimidoyl)-9-[(4-fluorophenyl)methyl]-7H-purin-8-one] |  | LYSA [3]: 115 µg/mL |
| <6.15 mL/min/kg | 168 µg/mL (≈ 375 µM) | CCCS(=N)(=O)c1nc(N)c2[nH]c(=O)n(Cc3ccc(C(=O)NCCOC)cc3)c2n1 (stereo not shown) [Example 40, 4-[[6-Amino-8-oxo-2-(propylsulfonimidoyl)-7H-purin-9-yl]methyl]-N-(2-methoxyethyl)benzamide] | 0.15 µM |  |
|  |  | CNC(=O)c1nc(N)c2[nH]c(=O)n(Cc3ccccc3)c2n1 [Example P-5, reference compound] | 3.14 µM | EC50 ([4]; HEK-Blue-hTLR8 cells, SEAP reporter, 20 hrs, read-out: HEK Blue hTLR-8 EC50): > 1000 µM |
| <6.15 mL/min/kg | > 465 µg/mL | CCCS(=N)(=O)c1nc(N)c2[nH]c(=O)n(Cc3cncnc3)c2n1 (stereo not shown) [Example 43, 6-Amino-2-(propylsulfonimidoyl)-9-(pyrimidin-5-ylmethyl)-7H-purin-8-one] | 0.24 µM |  |
|  |  | CS(=N)(=O)c1nc(N)c2[nH]c(=O)n(Cc3ccccc3)c2n1 (stereo not shown) [Example 1, 6-Amino-9-benzyl-2-(methylsulfonimidoyl)-7H-purin-8-one] | 0.3 µM | Human Liver Microsome Clearance (mL/min/kg) [2]: <6.15* mL/min/kg |
| <6.15 mL/min/kg | 152 µg/mL (≈ 434 µM) | CCS(=N)(=O)c1nc(N)c2[nH]c(=O)n(Cc3ccc(F)cc3)c2n1 (stereo not shown) [Example 72, 6-Amino-2-(ethylsulfonimidoyl)-9-[(4-fluorophenyl)methyl]-7H-purin-8-one] |  |  |
|  |  | CS(=N)(=O)c1nc(N)c2[nH]c(=O)n(Cc3ccncc3)c2n1 (stereo not shown) [Example 20, 6-Amino-2-(methylsulfonimidoyl)-9-(4-pyridylmethyl)-7H-purin-8-one] | 0.26 µM | EC50 [4]: > 1000 µM; Selective index [4]: >3846 |

| Compound | Human Liver Microsome Clearance [2] | solubility thermodynamic [3] | EC50 [1, 5] | also measured |
| --- | --- | --- | --- | --- |
| COCCS(=N)(=O)c1nc(N)c2[nH]c(=O)n(Cc3ccccc3)c2n1 (stereo not shown) [Example 3, 6-Amino-9-benzyl-2-(2-methoxyethylsulfonimidoyl)-7H-purin-8-one] | <6.15 mL/min/kg | 300 µg/mL (≈ 828 µM) | 0.33 µM |  |
| CS(=N)(=O)c1nc(N)c2[nH]c(=O)n(Cc3ccc(Cl)cc3)c2n1 (stereo not shown) [Example 13, 6-Amino-9-[(4-chlorophenyl)methyl]-2-(methylsulfonimidoyl)-7H-purin-8-one] |  | 10 µg/mL (≈ 28.3 µM) | 0.043 µM | EC50 [4]: 300 µM; Selective index [4]: 6977 |
| CCCS(=N)(=O)c1nc(N)c2[nH]c(=O)n(Cc3ccc(C(N)=O)cc3)c2n1 (stereo not shown) [Example 33, 4-[[6-amino-8-oxo-2-(propylsulfonimidoyl)-7H-purin-9-yl]methyl]benzamide] | <6.15 mL/min/kg | 79 µg/mL (≈ 203 µM) | 0.066 µM |  |
| CCS(=N)(=O)c1nc(N)c2[nH]c(=O)n(Cc3ccc(C)cc3)c2n1 (single isomer, unassigned) [Example 71-B, 6-Amino-2-(ethylsulfonimidoyl)-9-(p-tolylmethyl)-7H-purin-8-one] | <6.15 mL/min/kg |  |  | LYSA [3]: 13 µg/mL |
| CCCS(=N)(=O)c1nc(N)c2[nH]c(=O)n(Cc3ccc(C#N)cc3)c2n1 (stereo not shown) [Example 32, 4-[[6-Amino-8-oxo-2-(propylsulfonimidoyl)-7H-purin-9-yl]methyl]benzonitrile] | <6.15 mL/min/kg | 18 µg/mL (≈ 48.5 µM) |  | EC50 ([1]; HEK-Blue-hTLR7 (EC50 (μM))): 0.054 µM |
| CS(=N)(=O)c1nc(N)c2[nH]c(=O)n(Cc3ccccc3)c2n1 (single isomer, unassigned) [Example 1-A, 6-Amino-9-benzyl-2-(methylsulfonimidoyl)-7H-purin-8-one] | <6.15 mL/min/kg |  |  | LYSA [3]: 85 µg/mL |
| CCS(=N)(=O)c1nc(N)c2[nH]c(=O)n(Cc3ccc(Cl)cc3)c2n1 (stereo not shown) [Example 70, 6-Amino-9-[(4-chlorophenyl)methyl]-2-(ethylsulfonimidoyl)-7H-purin-8-one] |  | 7 µg/mL (≈ 19.1 µM) | 0.057 µM | EC50 [4]: 90 µM; Selective index [4]: 1579 |
